Data: patent US20230151003A1, “COMPOUNDS AND METHODS OF USE” (Exelixis, Inc., priority 2020, published 2023)
Blank lines part the entries; values can stand above or below the compound they belong to.

Key:
KDR = KDR (Homo sapiens, UniProt P35968); experiment: KDR autophosphorylation ELISA in HUVEC cells; type: cell-based; set-up: endogenous in cells; host or cells: HUVEC (Lonza #C2519A); settings: Table 3 Cellular Activities, VEGF165-stimulated, phospho-KDR ELISA
Method in brief: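 Serum-starved (24 h) primary HUVEC were pretreated 1 h with compounds (8-point dilution, 0.3% DMSO final), then stimulated 5 min with 100 ng/mL VEGF165. Lysate phospho-KDR quantified by sandwich ELISA against a phospho-KDR standard; IC50 by 4-parameter fit, normalised to stimulated DMSO and unstimulated controls.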

Met = Met (Homo sapiens, UniProt P08581); experiment: Met autophosphorylation ELISA in PC-3 cells; type: cell-based; set-up: endogenous in cells; host or cells: PC-3 prostate cancer cells (ATCC #CRL-1435); settings: Table 3 Cellular Activities, HGF-stimulated, phospho-Met ELISA, read-out: c-Met IC50
Sequence of Met (P08581 25-1390): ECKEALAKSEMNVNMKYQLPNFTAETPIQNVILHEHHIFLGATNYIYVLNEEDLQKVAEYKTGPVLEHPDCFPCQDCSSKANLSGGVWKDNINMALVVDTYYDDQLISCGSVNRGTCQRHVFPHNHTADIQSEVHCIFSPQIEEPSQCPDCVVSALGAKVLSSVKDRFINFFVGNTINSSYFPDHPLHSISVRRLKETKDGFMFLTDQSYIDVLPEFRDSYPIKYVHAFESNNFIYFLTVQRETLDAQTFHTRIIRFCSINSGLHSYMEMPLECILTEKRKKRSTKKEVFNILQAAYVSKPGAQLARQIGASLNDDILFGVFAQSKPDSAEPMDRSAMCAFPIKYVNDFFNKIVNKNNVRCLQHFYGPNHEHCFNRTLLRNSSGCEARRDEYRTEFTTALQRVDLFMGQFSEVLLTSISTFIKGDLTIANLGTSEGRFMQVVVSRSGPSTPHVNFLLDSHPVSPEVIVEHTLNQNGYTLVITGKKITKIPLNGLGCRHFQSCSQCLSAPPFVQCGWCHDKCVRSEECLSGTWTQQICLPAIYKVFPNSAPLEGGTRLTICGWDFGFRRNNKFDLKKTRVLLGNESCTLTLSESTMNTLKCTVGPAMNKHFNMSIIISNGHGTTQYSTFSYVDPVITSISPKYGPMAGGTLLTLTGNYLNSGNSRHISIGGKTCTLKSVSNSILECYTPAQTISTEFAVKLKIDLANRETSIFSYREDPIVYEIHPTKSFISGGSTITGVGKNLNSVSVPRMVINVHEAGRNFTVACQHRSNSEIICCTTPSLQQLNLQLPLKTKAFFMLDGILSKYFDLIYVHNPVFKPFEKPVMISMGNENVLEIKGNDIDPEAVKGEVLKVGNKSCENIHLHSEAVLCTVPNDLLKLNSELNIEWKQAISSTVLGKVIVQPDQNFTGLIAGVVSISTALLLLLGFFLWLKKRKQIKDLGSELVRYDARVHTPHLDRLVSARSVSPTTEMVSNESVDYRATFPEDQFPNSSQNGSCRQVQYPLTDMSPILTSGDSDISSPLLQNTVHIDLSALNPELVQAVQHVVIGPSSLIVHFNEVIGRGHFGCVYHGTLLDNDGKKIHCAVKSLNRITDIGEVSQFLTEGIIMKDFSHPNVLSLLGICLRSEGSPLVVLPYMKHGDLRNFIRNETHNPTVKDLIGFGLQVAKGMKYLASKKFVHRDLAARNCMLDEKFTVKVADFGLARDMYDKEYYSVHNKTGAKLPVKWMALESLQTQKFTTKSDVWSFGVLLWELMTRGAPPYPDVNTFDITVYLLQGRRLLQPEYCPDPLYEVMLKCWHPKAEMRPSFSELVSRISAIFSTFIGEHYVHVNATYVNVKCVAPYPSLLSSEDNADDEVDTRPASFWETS
Method in brief: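 IC50 derived by 4-parameter logistic regression of phospho-Met (panTyr) sandwich ELISA signal, scaled between HGF-stimulated DMSO and reference-inhibitor lysates. PC-3 cells, serum-starved 3 h, received an 8-point compound series (0.3% DMSO) for 1 h before 10 min stimulation with 100 ng/mL human HGF.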

Sequence of KDR (P35968 20-1356): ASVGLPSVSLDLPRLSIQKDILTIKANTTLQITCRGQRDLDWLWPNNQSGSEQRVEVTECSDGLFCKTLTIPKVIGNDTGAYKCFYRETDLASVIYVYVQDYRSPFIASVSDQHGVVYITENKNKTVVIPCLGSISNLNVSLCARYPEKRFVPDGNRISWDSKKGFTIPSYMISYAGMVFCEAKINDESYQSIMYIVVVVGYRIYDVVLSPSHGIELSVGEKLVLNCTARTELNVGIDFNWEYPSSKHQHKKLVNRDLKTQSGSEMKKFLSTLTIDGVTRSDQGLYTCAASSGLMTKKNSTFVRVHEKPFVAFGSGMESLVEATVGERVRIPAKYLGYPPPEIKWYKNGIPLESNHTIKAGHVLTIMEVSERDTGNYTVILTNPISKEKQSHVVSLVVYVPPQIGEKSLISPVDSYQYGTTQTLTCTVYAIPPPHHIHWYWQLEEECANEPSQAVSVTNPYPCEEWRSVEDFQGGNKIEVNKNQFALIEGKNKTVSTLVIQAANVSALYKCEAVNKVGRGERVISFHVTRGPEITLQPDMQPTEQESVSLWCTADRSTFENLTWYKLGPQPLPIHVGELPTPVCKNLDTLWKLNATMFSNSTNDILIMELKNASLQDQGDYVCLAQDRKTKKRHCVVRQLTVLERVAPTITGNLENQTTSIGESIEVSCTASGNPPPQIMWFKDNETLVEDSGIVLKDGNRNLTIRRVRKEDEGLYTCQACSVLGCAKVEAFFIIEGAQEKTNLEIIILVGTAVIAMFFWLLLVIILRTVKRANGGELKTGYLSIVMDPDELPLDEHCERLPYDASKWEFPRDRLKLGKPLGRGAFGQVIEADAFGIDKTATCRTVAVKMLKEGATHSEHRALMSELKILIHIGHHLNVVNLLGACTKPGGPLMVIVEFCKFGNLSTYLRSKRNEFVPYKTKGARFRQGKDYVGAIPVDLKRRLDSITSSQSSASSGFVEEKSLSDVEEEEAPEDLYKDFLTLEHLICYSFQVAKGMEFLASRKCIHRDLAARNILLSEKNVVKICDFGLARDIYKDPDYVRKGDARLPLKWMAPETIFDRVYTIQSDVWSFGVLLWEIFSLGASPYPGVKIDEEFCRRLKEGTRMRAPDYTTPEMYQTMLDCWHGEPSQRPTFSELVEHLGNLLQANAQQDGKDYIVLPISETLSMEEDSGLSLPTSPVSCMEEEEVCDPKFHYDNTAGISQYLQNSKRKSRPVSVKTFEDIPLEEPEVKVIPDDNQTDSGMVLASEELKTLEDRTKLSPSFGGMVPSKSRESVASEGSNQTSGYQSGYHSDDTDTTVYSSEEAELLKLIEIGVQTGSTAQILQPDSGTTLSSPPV

Structure (SMILES): COc1cc2nccc(Oc3cc(F)c(NC(=O)c4c(C)n(C)c(C)c(-c5ccco5)c4=O)cc3F)c2nc1OC [Compound 163, N-[4-[(6,7-Dimethoxy-1,5-naphthyridin-4-yl)oxy]-2,5-difluorophenyl]-5-(furan-2-yl)-1,2,6-trimethyl-4-oxopyridine-3-carboxamide]
- IC50 (KDR): 300 to 1000 nM
- IC50 (Met): ≤ 100 nM

Structure (SMILES): COc1cc2nccc(Oc3ccc(NC(=O)c4c(C)nc(C)c(-c5cc(C)cs5)c4O)cc3F)c2nc1OC [Compound 137, N-[4-[(6,7-Dimethoxy-1,5-naphthyridin-4-yl)oxy]-3-fluorophenyl]-4-hydroxy-2,6-dimethyl-5-(4-methylthiophen-2-yl)pyridine-3-carboxamide]
- IC50 (KDR): ≤ 100 nM
- IC50 (Met): ≤ 100 nM

Structure (SMILES): COc1cc2nccc(Oc3ccc(NC(=O)c4cnc(C)c(-c5ccoc5)c4O)cc3F)c2nc1OC [Compound 95, N-[4-[(6,7-Dimethoxy-1,5-naphthyridin-4-yl)oxy]-3-fluoro-phenyl]-5-(3-furyl)-4-hydroxy-6-methyl-pyridine-3-carboxamide]
- IC50 (KDR): ≤ 100 nM
- IC50 (Met): ≤ 100 nM

Structure (SMILES): COc1cnc2c(Oc3ccc(NC(=O)c4cnc(C)c(-c5cccs5)c4O)cc3F)ccnc2c1 [Compound 100, N-[3-Fluoro-4-[(7-methoxy-1,5-naphthyridin-4-yl)oxy]phenyl]-4-hydroxy-6-methyl-5-(2-thienyl)pyridine-3-carboxamide]
- IC50 (KDR): ≤ 100 nM
- IC50 (Met): ≤ 100 nM

Structure (SMILES): COCc1nc(C)c(-c2ccc(C)o2)c(O)c1C(=O)Nc1ccc(Oc2ccnc3cc(OC)c(OC)nc23)c(F)c1 [Compound 117, N-[4-[(6,7-Dimethoxy-1,5-naphthyridin-4-yl)oxy]-3-fluorophenyl]-4-hydroxy-2-(methoxymethyl)-6-methyl-5-(5-methylfuran-2-yl)pyridine-3-carboxamide]
- IC50 (KDR): ≤ 100 nM
- IC50 (Met): ≤ 100 nM

Structure (SMILES): COc1cc2nccc(Oc3ccc(NC(=O)c4c(C)ncc(-c5ccco5)c4O)cc3F)c2nc1OC [Compound 119, N-[4-[(6,7-Dimethoxy-1,5-naphthyridin-4-yl)oxy]-3-fluorophenyl]-5-(furan-2-yl)-4-hydroxy-2-methylpyridine-3-carboxamide]
- IC50 (KDR): ≤ 100 nM
- IC50 (Met): ≤ 100 nM

Structure (SMILES): COc1cnc2c(Oc3ccc(NC(=O)c4cnc(C)c(-c5ccc(C)s5)c4O)cc3F)ccnc2c1 [Compound 101, N-[3-Fluoro-4-[(7-methoxy-1,5-naphthyridin-4-yl)oxy]phenyl]-4-hydroxy-6-methyl-5-(5-methyl-2-thienyl) pyridine-3-carboxamide]
- IC50 (KDR): ≤ 100 nM
- IC50 (Met): ≤ 100 nM

Structure (SMILES): COc1cnc2c(Oc3ccc(NC(=O)c4cn(CCF)c(C)c(-c5ccc(C)s5)c4=O)cc3F)ccnc2c1 [Compound 329, 1-(2-Fluoroethyl)-N-[3-fluoro-4-[(7-methoxy-1,5-naphthyridin-4-yl)oxy]phenyl]-6-methyl-5-(5-methylthiophen-2-yl)-4-oxopyridine-3-carboxamide]
- IC50 (KDR): 300 to 1000 nM
- IC50 (Met): ≤ 100 nM

Second part, the compound after the results:

- IC50 (KDR): ≤ 100 nM
- IC50 (Met): ≤ 100 nM
Structure (SMILES): COc1cc2nccc(Oc3ccc(NC(=O)c4cnc(C)c(-c5nccs5)c4O)cc3F)c2nc1OC [Compound 143, N-[4-[(6,7-Dimethoxy-1,5-naphthyridin-4-yl)oxy]-3-fluorophenyl]-4-hydroxy-6-methyl-5-(1,3-thiazol-2-yl)pyridine-3-carboxamide]

- IC50 (KDR): ≤ 100 nM
- IC50 (Met): 100 to 300 nM
Structure (SMILES): CCc1ccc(-c2c(C)ncc(C(=O)Nc3ccc(Oc4ccnc5cc(OC)c(OC)nc45)c(F)c3)c2O)o1 [Compound 153, N-[4-[(6,7-Dimethoxy-1,5-naphthyridin-4-yl)oxy]-3-fluorophenyl]-5-(5-ethylfuran-2-yl)-4-hydroxy-6-methylpyridine-3-carboxamide]

- IC50 (KDR): ≤ 100 nM
- IC50 (Met): ≤ 100 nM
Structure (SMILES): COc1cnc2c(Oc3ccc(NC(=O)c4cnc(C)c(-c5cc(C)cs5)c4O)cc3F)ccnc2c1 [Compound 102, N-[3-Fluoro-4-[(7-methoxy-1,5-naphthyridin-4-yl)oxy]phenyl]-4-hydroxy-6-methyl-5-(4-methyl-2-thienyl) pyridine-3-carboxamide]

- IC50 (KDR): 300 to 1000 nM
- IC50 (Met): ≤ 100 nM
Structure (SMILES): COc1cc2nccc(Oc3ccc(NC(=O)c4cc(Br)c(C)n(-c5ccc(F)cn5)c4=O)cc3F)c2nc1OC [Compound 55, 5-Bromo-N-[4-[(6,7-dimethoxy-1,5-naphthyridin-4-yl)oxy]-3-fluorophenyl]-1-(5-fluoropyridin-2-yl)-6-methyl-2-oxopyridine-3-carboxamide]

- IC50 (KDR): ≤ 100 nM
- IC50 (Met): ≤ 100 nM
Structure (SMILES): COc1cc2nccc(Oc3ccc(NC(=O)c4c(C)nc(C)c(-c5cccs5)c4O)cc3F)c2nc1OC [Compound 107]

- IC50 (KDR): ≤ 100 nM
- IC50 (Met): ≤ 100 nM
Structure (SMILES): COc1cc2nccc(Oc3ccc(NC(=O)c4c(C)nc(C)c(-c5ccc(C)s5)c4O)cc3F)c2nc1OC [Compound 111, N-[4-[(6,7-Dimethoxy-1,5-naphthyridin-4-yl)oxy]-3-fluoro-phenyl]-4-hydroxy-2,6-dimethyl-5-(5-methyl-2-thienyl)pyridine-3-carboxamide]

- IC50 (KDR): ≤ 100 nM
- IC50 (Met): ≤ 100 nM
Structure (SMILES): COc1cc2nccc(Oc3ccc(NC(=O)c4c(C)nc(C)c(-c5ccsc5)c4O)cc3F)c2nc1OC [Compound 106]

- IC50 (KDR): ≤ 100 nM
- IC50 (Met): ≤ 100 nM
Structure (SMILES): COc1cc2nccc(Oc3ccc(NC(=O)c4cn(CCF)c(C)c(-c5ccsc5)c4=O)cc3F)c2nc1OC [Compound 332, N-[4-[(6,7-Dimethoxy-1,5-naphthyridin-4-yl)oxy]-3-fluorophenyl]-1-(2-fluoroethyl)-6-methyl-4-oxo-5-thiophen-3-ylpyridine-3-carboxamide]

- IC50 (KDR): ≤ 100 nM
- IC50 (Met): ≤ 100 nM
Structure (SMILES): COc1cc2nccc(Oc3ccc(NC(=O)c4cnc(C)c(-c5ccco5)c4O)cc3F)c2nc1OC [Compound 89, N-[4-[(6,7-Dimethoxy-1,5-naphthyridin-4-yl)oxy]-3-fluorophenyl]-5-(furan-2-yl)-4-hydroxy-6-methylpyridine-3-carboxamide]
